Assay results as given in US20090227601A1, “Bradykinin 1 Receptor Antagonists” (Amgen Inc., priority 2005, published 2009).
pIC50: −log10 of the molar value. No end group written: not given here.

Tested on: not given
Experiment: not given
Details: cited from earlier work

**Q.** Which “half-life of BK in plasma” value does the source give for RPPGFSPFR [BK, Bradykinin] here?
**A.** approximately 17 seconds

Molecular target: T1, hB2 receptor (Homo sapiens, UniProt P30411)
T1 construct: host or cells: CHO-K1
T1 sequence (P30411 1-391): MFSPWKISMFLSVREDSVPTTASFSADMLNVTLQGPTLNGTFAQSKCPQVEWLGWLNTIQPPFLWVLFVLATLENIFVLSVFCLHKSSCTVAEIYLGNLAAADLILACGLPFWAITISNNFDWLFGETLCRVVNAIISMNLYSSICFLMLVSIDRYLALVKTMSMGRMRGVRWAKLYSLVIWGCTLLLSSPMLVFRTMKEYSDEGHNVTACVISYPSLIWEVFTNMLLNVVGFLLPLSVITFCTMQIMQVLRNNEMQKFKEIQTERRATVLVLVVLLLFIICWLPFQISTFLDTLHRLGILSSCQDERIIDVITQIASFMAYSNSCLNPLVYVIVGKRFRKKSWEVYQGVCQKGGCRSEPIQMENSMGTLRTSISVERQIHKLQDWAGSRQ
Experiment: In vitro Assay of hB2 Receptor Function using Calcium Flux
Format: cell-based
Details: recombinant CHO cells, antagonist IC50 against agonist at EC80
Method: In vitro Assay of hB2 Receptor Function using Calcium Flux The intracellular calcium flux induced by hB2 receptor activation was analyzed using an hB2 recombinant cell line (CHO-K1) purchased from PerkinElmer (Catalog Number: RBHB2C000EA) on a fluorometric imaging plate reader (FLIPR). […] Culture medium was changed every other day. 24 h prior to the FLIPR assay, the hB2/CHO cells were washed once with PBS (Invitrogen) and 10 mL of Versene (1:5000, Invitrogen, Cat# 15040-066) was added to each flask. After 5 min incubation at 37° C., Versene was removed and cells were detached from the flask and resuspended in culture medium. Cells were counted and 25,000 cells/well were plated in 96-well black-sided clear bottom assay plates (Costar #3904). Cells were incubated in a 37° C. CO2 incubator overnight. The media was aspirated from the cells and replaced with 65 μL of dye-loading buffer. The loading buffer was prepared by diluting a stock solution of 0.5 mM Fluo-4 AM (Molecular Probes, dissolved in DMSO containing 10% [w/v] pluronic acid) to a concentration of 1 μM in Clear Dulbecco's Modified Eagle Medium (DMEM) containing 0.1% BSA, 20 mM HEPES, and 2.5 mM probenecid. The cells were dye-loaded for 1 h at RT. The excess dye was removed by washing the cells 2× with assay buffer. The assay buffer consists of Hank's Balanced Salt Solution (HBSS) containing 20 mM HEPES, 0.1% BSA, and 2.5 mM probenecid. After the wash cycles, a volume of 100 μL was left in each well, and the plate was ready to be assayed in the FLIPR System. […] The cell plate and the compound plates were loaded onto the FLIPR and during the assay, fluorescence readings are taken simultaneously from all 96 wells of the cell plate. Ten 1-second readings were taken to establish a stable baseline for each well, then 25 μL from the B1 antagonist plate was rapidly (50 μL/sec.) added. The fluorescence signal was measured in 1-second (1 min) followed by 6-second (2 min) intervals for a total of 3 min to determine if there is any agonist activity with the compounds.

**Q.** With `Cc1cc(S(=O)(=O)N2C=CNC(=O)[C@H]2CC(=O)N2CCC3(CCNC3)C2)c(C)cc1Cl` (stereo partly drawn) [T-3-26, (3R)-4-((4-chloro-2,5-dimethylphenyl)sulfonyl)-3-(2-(2,7-diazaspiro[4.4]non-2-yl)-2-oxoethyl)-3,4-dihydro-2(1H)-pyrazinone] as the molecule, how does the pIC50 read?
**A.** 7.82

**Q.** With `Cc1cc(S(=O)(=O)N2C=CNC(=O)[C@H]2CC(=O)N2CCC3(CCN(C4CC4)C3)C2)c(C)cc1Cl` (stereo partly drawn) [T-3-38, (3R)-4-((4-chloro-2,5-dimethylphenyl)sulfonyl)-3-(2-(7-cyclopropyl-2,7-diazaspiro[4.4]non-2-yl)-2-oxoethyl)-3,4-dihydro-2(1H)-pyrazinone] as the molecule, how does the pIC50 read?
**A.** 8.29

**Q.** With `Cc1ccc(S(=O)(=O)N2C=CNC(=O)[C@H]2CC(=O)N2CCC(NC(=O)c3ccccc3)CC2)cc1` [T-3-40, N-(1-(2-((2R)-1-((4-methylphenyl)sulfonyl)-3-oxo-1,2,3,4-tetrahydro-2-pyrazinyl)acetyl)-4-piperidinyl)benzamide] as the molecule, how does the pIC50 read?
**A.** < 5.40

**Q.** With `Cc1ccc(S(=O)(=O)N2C=CNC(=O)[C@H]2CC(=O)N2CCCC2c2ccccc2)cc1` (stereo partly drawn) [T-3-43, (3R)-4-((4-methylphenyl)sulfonyl)-3-(2-oxo-2-(2RS-phenyl-1-pyrrolidinyl)ethyl)-3,4-dihydro-2(1H)-pyrazinone] as the molecule, how does the pIC50 read?
**A.** 5.59

**Q.** With `COc1ccc(CC2CCCN2C(=O)C[C@@H]2C(=O)NC=CN2S(=O)(=O)c2ccc(C)cc2)cc1` (stereo partly drawn) [T-3-47, (3R)-3-(2-(2-RS-((4-(methyloxy)phenyl)methyl)-1-pyrrolidinyl)-2-oxoethyl)-4-((4-methylphenyl)sulfonyl)-3,4-dihydro-2(1H)-pyrazinone] as the molecule, how does the pIC50 read?
**A.** 6.41

**Q.** With `Cc1ccc(C2CCN(C(=O)C[C@@H]3C(=O)NC=CN3S(=O)(=O)c3ccc(C)cc3)CC2)cc1` [T-3-48, (3R)-3-(2-(4-(4-methylphenyl)-1-piperidinyl)-2-oxoethyl)-4-((4-methylphenyl)-sulfonyl)-3,4-dihydro-2(1H)-pyrazinone] as the molecule, how does the pIC50 read?
**A.** 5.80

**Q.** With `Cc1ccc(S(=O)(=O)N2C=CNC(=O)[C@H]2CC(=O)N2CCCC2c2cc3ccccc3[nH]2)cc1` (stereo partly drawn) [T-3-50, (3R)-3-(2-(2-RS-(1H-indol-2-yl)-1-pyrrolidinyl)-2-oxoethyl)-4-((4-methylphenyl)sulfonyl)-3,4-dihydro-2(1H)-pyrazinone] as the molecule, how does the pIC50 read?
**A.** < 5.40

**Q.** With “N-((1R)-2,2-dimethyl-4-oxocyclohexyl)-2-((2R)-1-((4-methylphenyl)sulfonyl)-3-oxo-1,2,3,4-tetrahydro-2-pyrazinyl)acetamide; and N-((1S)-2,2-dimethyl-4-oxocyclohexyl)-2-((2R)-1-((4-methylphenyl)sulfonyl)-3-oxo-1,2,3,4-tetrahydro-2-pyrazinyl)acetamide [T-1-37]” as the molecule, how does the pIC50 read?
**A.** 7.72

**Q.** With “N-((3R)-1-(1-methylethyl)-3-piperidinyl)-2-((2R)-1-((4-methylphenyl)sulfonyl)-3-oxo-1,2,3,4-tetrahydro-2-pyrazinyl)acetamide; and N-((3S)-1-(1-methylethyl)-3-piperidinyl)-2-((2R)-1-((4-methylphenyl)sulfonyl)-3-oxo-1,2,3,4-tetrahydro-2-pyrazinyl)acetamide [T-1-11]” as the molecule, how does the pIC50 read?
**A.** 6.28

**Q.** With “N-((4S)-1-cyclopropyl-3,3-dimethyl-4-piperidinyl)-2-((2R)-1-((4-methylphenyl)-sulfonyl)-3-oxo-1,2,3,4-tetrahydro-2-pyrazinyl)acetamide; and N-((4R)-1-cyclopropyl-3,3-dimethyl-4-piperidinyl)-2-((2R)-1-((4-methylphenyl)-sulfonyl)-3-oxo-1,2,3,4-tetrahydro-2-pyrazinyl)acetamide [T-1-45]” as the molecule, how does the pIC50 read?
**A.** 9.00
